Experimental data from US20240066136A1, “MODIFIED PROTEINS AND PROTEIN DEGRADERS” (Cullgen (Shanghai), Inc., priority 2020, published 2024).

Each compound was assayed against Human DDB1 (Homo sapiens (Human), UniProt Q16531) (assay: Surface plasmon resonance (SPR) binding assay to immobilized His-DDB1). Settings: SPR, DDB1 binding moieties with linkers and/or target protein binding moiety; read-out: Binding (Kd).
Procedure: The binding affinities of heterobifunctional compounds to DDB1 were determined by SPR assay. Purified His-DDB1 proteins were immobilized on a CM5 sensor chip, and a dose range of compound solutions were injected in multi-cycle kinetic format. Data were fit to steady state model and gave equivalent dissociation constants (KD).
Protein Expression and Purification. Human DDB1 (UniPro: Q16531) coding sequences were cloned into pFastBacHTB vector and were expressed in High5 cells using Bac-to-Bac baculovirus expression system (Thermo Fisher Scientific). […] DDB1 proteins were obtained from supernatant of cell lysates and purified through sequential application of Ni affinity (Ni-NTA column. Bio-Rad), and size-exclusion (Superdex 200 16/600GL column, GE Healthcare) column chromatography.
Surface plasmon resonance (SPR) binding assay. All SPR studies were performed on a Biacore X100 plus or T200 instrument (GE Healthcare). Immobilization of purified His-DDB1 was carried out at 25° C. using a CM5 sensor chip. The surface was pre-equilibrated in HBS-EP running buffer (10 mM HEPES, pH7.4, 150 mM NaCl, 3 mM EDTA, 0.05% P20), then activated with EDC/NHS. His-DDB1 proteins were immobilized by amine coupling to a density of 11,000-13,000 resonance units (RUs) on flow cell FC2, whereas flow cell FC1 was used as reference. Both DDB1 immobilized and reference surfaces were deactivated with 1M ethanolamine.
All interaction experiments were performed at 25° C. […] Compound Solutions were injected individually in multi-cycle kinetic format without regeneration (flow rate […], association time 120 s, dissociation time 120 s). Sensorgrams from reference surfaces and blank injections were subtracted from the raw data (double-referencing) and the data was solvent-corrected prior to analysis. All data were fit to steady state affinity model using Biacore Evaluation Software and gave equivalent dissociation constants (KD).

Human DDB1, sequence (Q16531 whole entry): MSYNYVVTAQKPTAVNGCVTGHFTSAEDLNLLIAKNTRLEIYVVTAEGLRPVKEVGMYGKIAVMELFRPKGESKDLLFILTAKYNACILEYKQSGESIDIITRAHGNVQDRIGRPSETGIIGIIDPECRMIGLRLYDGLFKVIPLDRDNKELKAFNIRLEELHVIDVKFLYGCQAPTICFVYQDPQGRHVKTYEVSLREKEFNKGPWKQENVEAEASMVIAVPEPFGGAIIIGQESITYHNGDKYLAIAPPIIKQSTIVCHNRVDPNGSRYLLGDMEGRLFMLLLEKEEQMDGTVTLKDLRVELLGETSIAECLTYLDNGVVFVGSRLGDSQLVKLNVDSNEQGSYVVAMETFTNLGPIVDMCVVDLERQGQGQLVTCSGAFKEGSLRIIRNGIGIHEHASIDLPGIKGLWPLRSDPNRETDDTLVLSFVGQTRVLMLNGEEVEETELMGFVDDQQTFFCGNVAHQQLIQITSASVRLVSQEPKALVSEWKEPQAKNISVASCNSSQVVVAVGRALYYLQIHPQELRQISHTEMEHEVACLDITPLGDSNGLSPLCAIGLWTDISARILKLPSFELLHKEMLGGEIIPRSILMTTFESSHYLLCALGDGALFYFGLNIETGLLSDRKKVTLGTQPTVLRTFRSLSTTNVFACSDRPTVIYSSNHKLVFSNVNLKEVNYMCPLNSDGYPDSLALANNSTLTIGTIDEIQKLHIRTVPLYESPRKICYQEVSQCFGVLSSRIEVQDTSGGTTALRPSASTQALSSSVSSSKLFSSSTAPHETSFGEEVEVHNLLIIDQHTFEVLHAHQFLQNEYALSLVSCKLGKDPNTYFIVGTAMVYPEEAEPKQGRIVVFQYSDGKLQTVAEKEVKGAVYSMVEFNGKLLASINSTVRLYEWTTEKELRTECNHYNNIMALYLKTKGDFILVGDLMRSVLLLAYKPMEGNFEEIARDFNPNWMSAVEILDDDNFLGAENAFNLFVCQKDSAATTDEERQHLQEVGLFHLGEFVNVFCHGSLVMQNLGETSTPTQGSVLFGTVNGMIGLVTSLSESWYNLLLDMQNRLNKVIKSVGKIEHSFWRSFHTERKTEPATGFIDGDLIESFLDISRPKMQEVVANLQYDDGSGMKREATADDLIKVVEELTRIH

Compound	Kd [µM]
CC(=O)Nc1cc(NCCCCCCCN)ccc1C(=O)Nc1nc(C)c([N+](=O)[O-])s1 [BL-7, 2-Acetamido-4-((7-aminoheptyl)amino)-N-(4-methyl-5-nitrothiazol-2-yl)benzamide]	20 to 100
CC(=O)Nc1cc(NCCOCCOCCOCCNC(=O)CN2CCN(c3ccc(Nc4ncc5c(C)c(C(C)=O)c(=O)n(C6CCCC6)c5n4)nc3)CC2)ccc1C(=O)Nc1nc(C)c([N+](=O)[O-])s1 [D-46, 2-Acetamido-4-((1-(4-(6-((6-acetyl-8-cyclopentyl-5-methyl-7-oxo-7,8-dihydropyrido[2,3-d]pyrimidin-2-yl)amino)pyridin-3-yl)piperazin-1-yl)-2-oxo-6,9,12-trioxa-3-azatetradecan-14-yl)amino)-N-(4-methyl-5-nitrothiazol-2-yl)benzamide]	< 20
CC(=O)Nc1cc(NCCOCCOCCOCCOCCNC(=O)CN2CCN(c3cccc(-c4cnc5ccc(N6CCC[C@@H]6c6cccc(F)c6)nn45)n3)CC2)ccc1C(=O)Nc1nc(C)c([N+](=O)[O-])s1 [D-23, (R)-2-Acetamido-4-((1-(4-(6-(6-(2-(3-fluorophenyl)pyrrolidin-1-yl)imidazo[1,2-b]pyridazin-3-yl)pyridin-2-yl)piperazin-1-yl)-2-oxo-6,9,12,15-tetraoxa-3-azaheptadecan-17-yl)amino)-N-(4-methyl-5-nitrothiazol-2-yl)benzamide]	20 to 100
CC(=O)Nc1cc(NCCOCCOCCOCCN)ccc1C(=O)Nc1nc(C)c([N+](=O)[O-])s1 [BL-8, 2-Acetamido-4-((2-(2-(2-(2-aminoethoxy)ethoxy)ethoxy)ethyl)amino)-N-(4-methyl-5-nitrothiazol-2-yl)benzamide]	20 to 100

Same assay, conditions: SPR, steady state affinity model, 25° C.; read-out: Binding (DDB1 binder activities, Kd)

Compound	Kd [µM]
CC(=O)Nc1ccccc1C(=O)Nc1nc(S(C)(=O)=O)cs1 [B-48, 2-Acetamido-N-(4-(methylsulfonyl)thiazol-2-yl)benzamide]	> 100
CNS(=O)(=O)c1ccccc1C(=O)Nc1ncc([N+](=O)[O-])s1 [B-81, 2-(N-Methylsulfamoyl)-N-(5-nitrothiazol-2-yl)benzamide]	20 to 100
CCCCNc1ccc(C(=O)Nc2nc(Br)c([N+](=O)[O-])s2)c(-c2ccccc2)c1 [B-113, N-(4-Bromo-5-nitrothiazol-2-yl)-5-(butylamino)-[1,1′-biphenyl]-2-carboxamide]	20 to 100
CCCC(=O)Nc1ccc(OC(C)=O)c(C(=O)Nc2ncc([N+](=O)[O-])s2)c1 [B-22, 4-Butyramido-2-((5-nitrothiazol-2-yl)carbamoyl)phenyl acetate]	20 to 100
CCCCNc1ccc(C(=O)N(C)c2ncc([N+](=O)[O-])s2)c(OCC)c1 [B-107, 4-(Butylamino)-2-ethoxy-N-methyl-N-(5-nitrothiazol-2-yl)benzamide]	20 to 100
CCc1ccc(C(=O)Nc2ncc([N+](=O)[O-])s2)c(C)c1 [B-158, 4-Ethyl-2-methyl-N-(5-nitrothiazol-2-yl)benzamide]	20 to 100
CC(C)COc1ccccc1C(=O)N(C)c1ncc([N+](=O)[O-])s1 [B-103, 2-Isobutoxy-N-methyl-N-(5-nitrothiazol-2-yl)benzamide]	20 to 100
CC(=O)Nc1ccccc1C(=O)Nc1ncc(-c2ccccc2)s1 [B-45, 2-acetamido-N-(5-phenylthiazol-2-yl)benzamide]	< 20
CC(C)Oc1ccccc1C(=O)Nc1ncc([N+](=O)[O-])s1 [B-74, 2-Isopropoxy-N-(5-nitrothiazol-2-yl)benzamide]	< 20
CC(C)Nc1ccccc1C(=O)Nc1ncc([N+](=O)[O-])s1 [B-70, 2-(Isopropylamino)-N-(5-nitrothiazol-2-yl)benzamide]	< 20
CNc1ccccc1C(=O)Nc1ncc([N+](=O)[O-])s1 [B-68, 2-(Methylamino)-N-(5-nitrothiazol-2-yl)benzamide]	20 to 100
O=C(Nc1ncc([N+](=O)[O-])s1)c1ccccc1C1CC1 [B-85, 2-cyclopropyl-N-(5-nitrothiazol-2-yl)benzamide]	20 to 100
Cc1cc(F)ccc1C(=O)Nc1ncc([N+](=O)[O-])s1 [B-171, 4-Fluoro-2-methyl-N-(5-nitrothiazol-2-yl)benzamide]	20 to 100
CC(=O)Oc1ccccc1C(=O)Nc1nc(C)c([N+](=O)[O-])s1 [B-9, 2-((4-Methyl-5-nitrothiazol-2-yl)carbamoyl)phenyl acetate]	20 to 100
CS(=O)(=O)Nc1ccccc1C(=O)Nc1ncc([N+](=O)[O-])s1 [B-67, 2-(methylsulfonamido)-N-(5-nitrothiazol-2-yl)benzamide]	20 to 100
CCCCNc1ccc(C(=O)Nc2ncc(C#N)s2)c(-c2ccccc2)c1 [B-119, 5-(Butylamino)-N-(5-cyanothiazol-2-yl)-[1,1′-biphenyl]-2-carboxamide]	20 to 100
CC(=O)Nc1ccccc1C(=O)Nc1ncc(C(F)(F)F)s1 [B-38, 2-acetamido-N-(5-(trifluoromethyl)thiazol-2-yl)benzamide]	< 20
CN(C(=O)c1ccccc1CCC(F)(F)F)c1ncc([N+](=O)[O-])s1 [B-105, N-Methyl-N-(5-nitrothiazol-2-yl)-2-(3,3,3-trifluoropropyl)benzamide]	> 100
Cc1cc(NC(C)C)ccc1C(=O)Nc1ncc([N+](=O)[O-])s1 [B-161, 4-(Isopropylamino)-2-methyl-N-(5-nitrothiazol-2-yl)benzamide]	> 100
COC(=O)Oc1ccccc1C(=O)Nc1ncc([N+](=O)[O-])s1 [B-78, Methyl (2-((5-nitrothiazol-2-yl)carbamoyl)phenyl) carbonate]	20 to 100

Compound	Kd [µM]
CNC(=O)c1ccc(-c2cccc(O)c2)nc1NCC1CC1 [B-143, 2-((cyclopropylmethyl)amino)-6-(3-hydroxyphenyl)-N-methylnicotinamide]	20 to 100
CC(=O)Nc1ccccc1C(=O)Nc1ccc(I)cc1 [B-60, 2-Acetamido-N-(4-iodophenyl)benzamide]	20 to 100
O=C(Nc1ncc([N+](=O)[O-])s1)c1ccccc1O [B-2, 2-hydroxy-N-(5-nitrothiazol-2-yl)benzamide]	20 to 100
Cc1cc(-c2ccccc2)ccc1C(=O)Nc1ncc([N+](=O)[O-])s1 [B-153, 3-Methyl-N-(5-nitrothiazol-2-yl)-[1,1′-biphenyl]-4-carboxamide]	20 to 100
COC(=O)Nc1ccccc1C(=O)Nc1ncc([N+](=O)[O-])s1 [B-65, methyl (2-((5-nitrothiazol-2-yl)carbamoyl)phenyl)carbamate]	20 to 100
CC(=O)Nc1ccccc1C(=O)Nc1ccncn1 [B-57, 2-acetamido-N-(pyrimidin-4-yl)benzamide]	20 to 100
CC(=O)Nc1ccccc1C(=O)Nc1nc(C(F)(F)F)c([N+](=O)[O-])s1 [B-31, 2-Acetamido-N-(5-nitro-4-(trifluoromethyl)thiazol-2-yl)benzamide]	20 to 100
Cc1cc(Cl)ccc1C(=O)Nc1ncc([N+](=O)[O-])s1 [B-150, 4-chloro-2-methyl-N-(5-nitrothiazol-2-yl)benzamide]	20 to 100
2-Acetamido-3-butyramido-N-(5-nitrothiazol-2-yl)benzamide [B-146]	20 to 100
CCCCNc1ccc(C(=O)Nc2ncc([N+](=O)[O-])s2)c(Nc2ccccc2)c1 [B-108, 4-(Butylamino)-N-(5-nitrothiazol-2-yl)-2-(phenylamino)benzamide]	20 to 100
c1ncc(Nc2nccc(C3CCCCN3)n2)cn1 (stereo not shown) [B-137, 4-(piperidin-2-yl)-N-(pyrimidin-5-yl)pyrimidin-2-amine]	20 to 100
CCOc1cc(NC2CCOC2)ccc1C(=O)Nc1ncc([N+](=O)[O-])s1 (stereo not shown) [B-97, 2-Ethoxy-N-(5-nitrothiazol-2-yl)-4-((tetrahydrofuran-3-yl)amino)benzamide]	> 100
CNC(=O)Nc1ccccc1C(=O)Nc1ncc([N+](=O)[O-])s1 [B-66, 2-(3-methylureido)-N-(5-nitrothiazol-2-yl)benzamide]	< 20
CCNc1cccc(C)c1C(=O)Nc1ncc([N+](=O)[O-])s1 [B-169, 2-(Ethylamino)-6-methyl-N-(5-nitrothiazol-2-yl)benzamide]	20 to 100
CC(=O)Nc1ccccc1C(=O)Nc1nccs1 [B-41, 2-Acetamido-N-(thiazol-2-yl)benzamide]	> 100
CC(=O)Nc1ccccc1C(=O)Nc1ccc([N+](=O)[O-])cc1 [B-125, 2-Acetamido-N-(4-nitrophenyl)benzamide]	< 20
CC(=O)Nc1ccccc1C(=O)Nc1ccc(-c2ccccc2)s1 [B-130, 2-Acetamido-N-(5-phenylthiophen-2-yl)benzamide]	> 100
CC(=O)Nc1ccccc1C(=O)Nc1nc(C2CC2)c([N+](=O)[O-])s1 [B-32, 2-Acetamido-N-(4-cyclopropyl-5-nitrothiazol-2-yl)benzamide]	20 to 100
CCCCNc1ccc(C(=O)Nc2nc(-c3ccccc3)c([N+](=O)[O-])s2)c(-c2ccccc2)c1 [B-131, 5-(Butylamino)-N-(5-nitro-4-phenylthiazol-2-yl)-[1,1′-biphenyl]-2-carboxamide]	< 20
